{"source": "patent US10444244B2", "about": "“Microfluidic array supporting a lipid bilayer assembly” (DUBLIN CITY UNIVERSITY, priority 2014, dated 2019)", "key": {"[1]": {"experiment": "EIS of DOPC bilayer with K+/H+ gradient after Nigericin incorporation", "assay_type": "physicochemical", "settings": "20 μM from ethanol solution; cavities 150 mM K+, outside citrate buffer pH 4, H+ 10 mMol", "procedure": "(§1) Gold microcavity electrodes were formed through the method described herein using electrodeposition of gold through a close packed array of polystyrene spheres (2.88 micron in diameter) after which the spheres where removed by sonication in THF for 30 minutes. The gold microcavity array was then modified with mercaptoethanol (ME) by placing the substrate in a 1 mM solution of ME, in ethanol, for 24 hours. Alternatively it is possible to selectively modify the top surface with mercaptonexanol before removal of the spheres and leave the cavities free of surface modification after sphere removal. This latter approach gives even greater reproducibility.\nNigericin is an antiporter of H+ and K+, Herein, the cavities where prefilled with 150 mM K+ before bilayer formation. Citrate buffer (at pH 4) was then added to the electrolyte to supply the system with H+(10 mMol) ions on the outside of the bilayer. The impedance of the DOPC bilayer was measured in the presence of this ionic gradient."}, "[2]": {"experiment": "EIS of DOPC bilayer with K+/Na+ ion gradient after Valinomycin incorporation", "assay_type": "physicochemical", "settings": "20 μM from ethanol solution; cavities Tris KCl, contacting solution Tris NaCl", "procedure": "as §1\nAfter sonication a DOPC bilayer was formed over the micro-cavities using a combination of Langmuir-Blodgett and vesicle fusion as described above.\nElectrochemical impedance spectra (EIS) of this bilayer were measured by placing the array in contact with Tris NaCl. This creates an ion gradient across the lipid bilayer. The bilayer, effectively insulates the pore from the external contacting solution but once Valinomycin is introduced this should cause K+ ions to flow from inside the cavities into the bulk solution (see schematic in FIG. 18). The impedance of the DOPC bilayer was measured in the presence of this ionic gradient. Valinomycin was then introduced into the cell by adding 20 μM from an ethanol solution. […]"}, "[3]": {"experiment": "FLCS/FCS of labelled lipid diffusion in DOPC bilayer over buffer-filled PDMS cavity array after drug addition", "assay_type": "physicochemical", "settings": "for impact on diffusion of the lipophilic BODIPY-HPC probe: PBS pH 7.4, 15 mins incubation, ibuprofen 4-200 μmol, diclofenac 4-800 μmol", "procedure": "The lower dye concentration is required for FLCS experiments.\nFLCS measurements were recorded over cavities as well as flat PDMS surfaces to obtain the autocorrelation functions for each surface. […] The autocorrelation curves obtained were fit to the 2-dimensional model described in equation 1 to obtain the lateral diffusion co-efficient of the lipids in the bilayer.\nwhere, G(τ) is the autocorrelation function, N is the average number of fluorescent molecules present in the confocal volume, τi is the characteristic residence time, and α is the anomalous parameter which reflects the extent of deviation of diffusion from normal or Brownian motion where α=1, i is the index of the components. The lateral diffusion coefficient, DL, can be obtained as DL=ω^2/4τi. In this equation, ω is the radius of the laser beam used. To determine ω for each excitation, a reference solution of free dye was used for which the diffusion coefficient is known.\nThe probe is BODIPY labelled DOPE at 1% mol/mol lipid.\nMonitoring the diffusion of each probe permitted assessment of interaction of the drug with the membrane and where this interactions occurred; i.e. did it bind to the interface or intercalate in the bilayer? Only a single probe is necessary in most instances, however depending on the sophistication of the FCS instrument two labels can be used in a single two colour experiment or they can be applied in separate experiments to yield detailed insights into the location of the drug at the membrane."}, "[4]": {"settings": "for decrease in resistivity of DOPC bilayer: between 0 and 400 umol drug, PBS buffer pH 7.4 on both sides of the pore", "protocol": "A gold microcavity electrode is first modified with 2-mercaptoethanol by immersing them in a 1 mM solution in ethanol overnight after which they are sonicated in Tris buffer for 30 munities to pre fill the cavities (in the gold electrode or substrate). A DOPC monolayer is then deposited onto the microcavity electrode using a Langmuir-Blödgett deposition of monolayer followed by DOPC disruption at this monolayer to form a bilayer.\nMeasurements are performed with a potential of 0 V and a frequency range of 0.01 Hz to 100000 Hz with a standard 3 electrode set up with an Ag/AgCl reference electrode. All experiments are performed in Tris NaCl buffer with the cell contained inside a Faraday cage.\nElectrochemical Impedance Spectroscopy (EIS) is highly sensitive to changes in the bilayer and this sensitivity can be enhanced by using an electrochemical probe such as ferrocyanide in the contacting solution (i.e., solution contacting the outer surface of the array) or in applying an ionic gradient across the membrane by applying slightly different pH or ionic strength at the solution at each side of the membrane e.g., by pre-filling the cavities with a different ionic strength solution to that contacting solution which will operably be in contact with the top leaflet of the bilayer (i.e. away from the cavity). Within this context the inner membrane leaflet refers to the lipid layer closest to the cavities and the outer leaflet is that the lipid layer pointed away from the cavities and operably in contact with the contacting solution that is introduced into the inlet and out through the outlet of the microfluidic platform.\nThe experiment was carried out in PBS buffer at pH 7.4 at room temperature with cavities filled with same buffer solution. A microfluidic platform having an inlet and outlet (similar to the platform of FIG. 2) is used to introduce the ibuprofen to the bilayer.\nThe bilayers are stable to introduction of several volumes of buffer at the end of a study and we were able to monitor for reversibility of binding."}, "[5]": {"experiment": "Electrorelease of CD from cavity to cholesterol containing bilayer, bilayer resistance", "assay_type": "physicochemical", "text": "As an example. Mercaptoferrocene was self-assembled only at the inner cavity surface and a blocking thiolated alcohol (mercaptoethanol or mercaptohexanol) was assembled at the top surface of the array, by modification of the top surface of the array prior to release of the templating sphere and then adhering the ferrocene after sphere removal. The ferrocene binds selectively to streptavidin modified beta-cyclodextrin (CD-streptavidin) which is assembled prior to assembly of the DOPC/DOPC biotinylated bilayer. Application of 0.5 V vs Ag/AgCl results in oxidation of the ferrocene, which in the presence of Na+ acquires a permanent positive charge, preventing reassembly of the CD-streptavidin. The released CD-streptavidin diffuses to the bilayer where its streptavidin pendant recognises and binds to biotin. Such electrorelease can be combined with EIS to allow for the detection of interaction of released agent with the bilayer, and/or it can also be combined with spectroscopic methods, such as Raman and fluorescence spectroscopy for further investigation. […] In principle, the quantity of cholesterol removed can be controlled by altering the quantity of CD at the cavity through use of a mixed monolayer"}, "[6]": {"settings": "DOPC bilayer, 2.8 um PDMS pores"}}, "data": [{"smiles": "CO[C@@H]1C[C@@H](C[C@H]2CC[C@H](C)[C@H]([C@@H](C)C(=O)O)O2)O[C@]2(O[C@](C)([C@H]3CC[C@@](C)([C@@H]4O[C@@H]([C@H]5O[C@@](O)(CO)[C@H](C)C[C@@H]5C)C[C@@H]4C)O3)C[C@H]2C)[C@@H]1C", "note": "[Nigericin]", "values": [{"measurement": "change of bilayer resistance after ionophore incorporation", "setting": "[1]", "value": "a decrease in the resistance was observed"}]}, {"smiles": "CC(C)[C@@H]1NC(=O)[C@H](C)OC(=O)[C@@H](C(C)C)NC(=O)[C@@H](C(C)C)OC(=O)[C@H](C(C)C)NC(=O)[C@H](C)OC(=O)[C@@H](C(C)C)NC(=O)[C@@H](C(C)C)OC(=O)[C@H](C(C)C)NC(=O)[C@H](C)OC(=O)[C@@H](C(C)C)NC(=O)[C@@H](C(C)C)OC1=O", "note": "[Valinomycin]", "values": [{"measurement": "change of bilayer resistance after ionophore incorporation", "setting": "[2]", "value": "a decrease in the resistance was observed"}]}, {"smiles": "O=C(O)Cc1ccccc1Nc1c(Cl)cccc1Cl", "note": "[diclofenac]", "values": [{"measurement": "diffusion coefficient of Atto-655 labelled DOPE", "setting": "[3]; 800 μmol diclofenac, DOPC bilayer, PBS pH 7.4, at 0 drug 11.71±0.82", "value": "43.5±8.13", "unit": "μm^2 s^−1"}, {"measurement": "impact on diffusion of the lipophilic BODIPY-HPC probe", "setting": "[3]; [6]", "value": "little effect"}, {"measurement": "decrease in resistivity of DOPC bilayer", "setting": "[4]", "value": 65, "unit": "%"}]}, {"smiles": "CC(C)Cc1ccc(C(C)C(=O)O)cc1", "note": "(stereo not drawn) [ibuprofen]", "values": [{"measurement": "diffusion coefficient of the ATTO probe (DOPE-ATTO655)", "setting": "[3]; 100 μmol of ibuprofen, DOPC bilayer, PBS pH 7.4, without drug 10.37±0.72", "value": "12.05±0.6", "unit": "μm^2 s^−1"}, {"measurement": "impact on diffusion of the lipophilic BODIPY-HPC probe", "setting": "[3]; [6]", "value": "little impact"}, {"measurement": "membrane lipid diffusion coefficient after exposure of the bilayer", "setting": "[3]; ibuprofen 4 mMol, DOPC bilayer with 1% mol/mol BODIPY labelled DOPE, 2.8 um PDMS pores, PBS pH 7.4, room temperature, without drug approximately 7", "value": "approximately 9.5 μms^−1"}, {"measurement": "decrease in resistivity of DOPC bilayer", "setting": "[4]", "value": "roughly 6%"}, {"measurement": "effect on capacitance of the layer", "setting": "[4]; ibuprofen at 4 and then 8 mMol, 2.8 μm gold cavity arrays, PBS pH 7.4", "value": "initially in a decrease followed by a substantial increase in capacitance"}, {"measurement": "effect on impedance of the bilayer at equilibrium", "setting": "[4]; ibuprofen at 4 and then 8 mMol, 2.8 μm gold cavity arrays, PBS pH 7.4, room temperature, ferrocyanide redox probe", "value": "decrease in impedance"}]}, {"smiles": "OC[C@H]1O[C@@H]2O[C@H]3[C@H](O)[C@@H](O)[C@@H](O[C@H]4[C@H](O)[C@@H](O)[C@@H](O[C@H]5[C@H](O)[C@@H](O)[C@@H](O[C@H]6[C@H](O)[C@@H](O)[C@@H](O[C@H]7[C@H](O)[C@@H](O)[C@@H](O[C@H]8[C@H](O)[C@@H](O)[C@@H](O[C@H]1[C@H](O)[C@H]2O)O[C@@H]8CO)O[C@@H]7CO)O[C@@H]6CO)O[C@@H]5CO)O[C@@H]4CO)O[C@@H]3CO", "note": "[unlabeled CD, beta-cyclodextrin]", "values": [{"measurement": "effect of electroreleased agent on cholesterol containing bilayer", "setting": "[5]", "value": "removal of cholesterol from the bilayer, reflected in a decrease in resistance of the bilayer film"}]}]}
